{"source": "patent US10160986B2", "about": "“Chemoenzymatic synthesis of heparin and heparan sulfate analogs” (The Regents of the University of California, priority 2011, dated 2018)", "key": {"NahK_JCM1217": {"molecular_target": "NahK_JCM1217 (Bifidobacterium longum subsp. longum, UniProt E8MF12)", "details": "ATP and GlcNAc as substrates; HPIC with pulsed amperometric detector; cited from earlier work"}, "NahK_ATCC55813": {"molecular_target": "NahK_ATCC55813 (Bifidobacterium longum subsp. longum, UniProt E8MF12, D7V/R348H)", "experimental": "(§1) Kinetics by CE assays. Reactions were carried out in duplicate at 37° C. for 10 min in a total volume of 20 μL in Tris-HCl buffer (200 mM, pH 7.5) containing MgCl2 (1 mM), ATP, GlcNAc or GalNAc, and NahK (0.25 μM when GlcNAc and ATP were used as substrates, 0.5 μM when GalNAc and ATP were used as substrates). Apparent kinetic parameters were obtained by varying the ATP concentration from 0.1-5.0 mM (0.1 mM, 0.2 mM, 0.4 mM, 1 mM, 2 mM, and 5 mM) at a fixed concentration of GlcNAc or GalNAc (1 mM), or varying the concentration of GlcNAc or GalNAc (0.1 mM, 0.2 mM, 0.4 mM, 1 mM, 2 mM, and 5 mM) at a fixed concentration of ATP (1 mM) and fitting the data to the Michaelis-Menten equation using Grafit 5.0.\n(§2) Capillary electrophoresis (CE) assays. Based on the detection of ADP and ATP in the reaction mixture by a UV detector, a capillary electrophoresis-based method was developed to directly measure the formation of ADP and N-acetylhexosamine-1-phosphate from ATP and N-acetylhexosamine for characterizing the activities of NahKs."}, "NahK_ATCC15697": {"molecular_target": "NahK_ATCC15697 (Bifidobacterium longum, UniProt B7GN78)", "assay": "Kinetics by CE assays, NahK_ATCC15697", "details": "in the presence of ATP", "experimental": "as §1, §2"}, "human FGF-4": {"molecular_target": "T1, human FGF-4 (Homo sapiens, UniProt P08620)", "T1 construct": "purchased PeproTech Inc (Rocky Hill, N.J.)", "T1 sequence (P08620 31-206)": "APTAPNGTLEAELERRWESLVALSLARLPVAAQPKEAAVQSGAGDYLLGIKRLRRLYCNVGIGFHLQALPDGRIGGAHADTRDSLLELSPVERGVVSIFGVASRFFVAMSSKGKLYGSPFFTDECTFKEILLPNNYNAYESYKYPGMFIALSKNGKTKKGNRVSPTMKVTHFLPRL", "assay": "Inhibition of FGF-4 binding to immobilized heparin-biotin", "details": "compound 1 mM; FGF 1 μM", "text": "(§3) Materials. Recombinant human fibroblast growth factors FGF-1, FGF-2, FGF-4, and anti-human FGF-1, FGF-2, FGF-4 were purchased from PeproTech Inc (Rocky Hill, N.J.). Heparin-biotin was from Sigma (St. Louis, Mo.). Low molecular weight heparin (LMWH) was bought from AMS Biotechnology (Lake Forest, Calif.). Alexa Fluor® 488 goat anti-rabbit IgG (H+L) was from Invitrogen (Carlsbad, Calif.). 384-Well NeutrAvidin-coated plates for the sialidase assays were from Fisher Biotech.\nMethods. All assays were carried out in duplicate in 384-well NeutrAvidin coated plates. Heparin-biotin (20 μL, 2 μM) was added to each well and the plate was incubated at 4° C. for overnight. The plate was washed with 3 rounds of 1×PBS buffer containing 0.05% Tween-20 and blocked with 1% BSA (50 μL for each well) and incubated at r.t. for 30 min. After the plate was washed three times with 1×PBS buffer containing 0.05% Tween-20, each set of duplicate wells were added 20 μL of human FGF-1, FGF-2, or FGF-4 (1 μM) with or without premixing with LMWH (˜22 nM or 0.1 μM), monosaccharide, or oligosaccharides (100 μM or 1 mM) and the plate was incubate at r.t. for 1 hr. […] After washed three times with 1×PBS buffer containing 0.05% Tween-20 and once with water, the fluorescent signals of wells in the plate were measured using a microtiter plate reader."}, "human FGF-2": {"molecular_target": "T2, human FGF-2 (Homo sapiens, UniProt P09038)", "T2 construct": "purchased PeproTech Inc (Rocky Hill, N.J.)", "assay": "Inhibition of FGF-2 binding to immobilized heparin-biotin", "details": "compound 1 mM; FGF 1 μM", "text": "as §3\n(§4) Methods. All assays were carried out in duplicate in 384-well NeutrAvidin coated plates. Heparin-biotin (20 μL, 2 μM) was added to each well and the plate was incubated at 4° C. for overnight. The plate was washed with 3 rounds of 1×PBS buffer containing 0.05% Tween-20 and blocked with 1% BSA (50 μL for each well) and incubated at r.t. for 30 min. After the plate was washed three times with 1×PBS buffer containing 0.05% Tween-20, each set of duplicate wells were added 20 μL of human FGF-1, FGF-2, or FGF-4 (1 μM) with or without premixing with LMWH (˜22 nM or 0.1 μM), monosaccharide, or oligosaccharides (100 μM or 1 mM) and the plate was incubate at r.t. for 1 hr. After washing three times with 1×PBS buffer containing 0.05% Tween-20, anti-human FGF-1, FGF-2 or FGF-4 (20 μL) was added and the plate was incubated at r.t. for 1 hr. After the plate was washed three times with 1×PBS buffer containing 0.05% Tween-20, Alexa Fluor® 488 goat anti-rabbit IgG (H+L) (20 μL) was added and the plate was incubated at r.t. for 1 hr. After washed three times with 1×PBS buffer containing 0.05% Tween-20 and once with water, the fluorescent signals of wells in the plate were measured using a microtiter plate reader."}, "human FGF-1": {"molecular_target": "T3, human FGF-1 (Homo sapiens, UniProt P05230)", "T3 construct": "purchased PeproTech Inc (Rocky Hill, N.J.)", "assay": "Inhibition of FGF-1 binding to immobilized heparin-biotin", "details": "compound 1 mM; FGF 1 μM", "text": "as §3, §4"}, "AtGlcAK [1]": {"molecular_target": "T4, AtGlcAK (Arabidopsis thaliana, UniProt Q93ZC9, I297M)", "T4 construct": "made in house; host or cells: E. coli BL21 (DE3)", "assay": "AtGlcAK substrate specificity by TLC and LC-MS", "type": "biochemical", "details": "sugar 10 mM, ATP 20 mM, AtGlcAK 22 μg, 37° C., 15 hr", "experimental": "Substrates specificity assays by thin-layer chromatography (TLC). […] For visualizing compounds on TLC plate, p-anisaldehyde sugar stain was used.\nLC-MS assays for AtGlcAK reactions. The AtGlcAK reaction mixtures above were also analyzed by LC-MS. 2 μL of sample was diluted 100 fold and 8 μL was injected into a Waters spherisorb ODS-2 column (5 μm particles, 250 mm length, 4.6 mm I.D.). The sample was eluted with 30% acetonitrile in H2O with 0.1% formic acid and detected by ESI-MS in negative mode."}, "AtGlcAK [2]": {"molecular_target": "T4, AtGlcAK", "assay": "AtGlcAK substrate specificity CE assay", "type": "biochemical", "details": "Low enzyme Conc. (412 ng in 20 μL, 15 min, 37° C.)", "experimental": "Substrate specificity assays. […] The reactions were quenched and assayed with the same method as those for pH profile. All reactions were performed in duplicates."}, "[3]": {"test_system": "necrotizing enterocolitis in neonatal rats", "details": "previously reported; cited from earlier work"}}, "data": [{"compound": "Nc1ncnc2c1ncn2[C@@H]1O[C@H](COP(=O)(O)OP(=O)(O)OP(=O)(O)O)[C@@H](O)[C@H]1O", "note": "[ATP, Adenosine-5′-triphosphate]", "values": [{"measurement": "Km", "setting": "NahK_JCM1217", "value": 172, "unit": "µM"}, {"measurement": "kcat", "setting": "NahK_ATCC55813; substrates ATP and GlcNAc", "value": "1.3 ± 0.1", "unit": "s⁻¹"}, {"measurement": "Km", "setting": "NahK_ATCC55813; substrates ATP and GlcNAc, one varied, other fixed at 1 mM, 37° C., 10 min", "value": "110 ± 30", "unit": "µM"}]}, {"compound": "CC(=O)N[C@H]1C(O)O[C@H](CO)[C@@H](O)[C@@H]1O", "note": "(some centres unmarked) [GlcNAc, N-acetylglucosamine]", "values": [{"measurement": "efficiency as substrate relative to GalNAc", "setting": "NahK_ATCC15697", "value": 3.1, "unit": "fold"}, {"measurement": "Km", "setting": "NahK_JCM1217", "value": 118, "unit": "µM"}, {"measurement": "efficiency as substrate relative to GalNAc", "setting": "NahK_ATCC55813; in the presence of ATP", "value": 2.6, "unit": "fold"}]}, {"compound": "GlcNAc6NH2α1-4GlcAβ1-4GlcNSα1-4GlcAβ2AA [Compound F24-15]", "values": [{"measurement": "FGF-4 (% inhibition)", "setting": "human FGF-4", "value": 43, "unit": "%"}, {"measurement": "FGF-2 (% inhibition)", "setting": "human FGF-2", "value": 68, "unit": "%"}]}, {"compound": "O=C[C@H](O)[C@@H](O)[C@H](O)[C@H](O)C(=O)O", "note": "[Compound F24-1, glucuronic acid]", "values": [{"measurement": "inhibition at 1000 µM", "setting": "human FGF-1", "value": 65, "unit": "%"}, {"measurement": "inhibition at 1000 µM", "setting": "human FGF-4", "value": 54, "unit": "%"}, {"measurement": "substrate for AtGlcAK (formation of sugar-1-phosphate)", "setting": "AtGlcAK [1]", "value": "acceptable substrates"}, {"measurement": "Percentage conversion of ATP", "setting": "AtGlcAK [2]", "value": 61.5, "unit": "%"}, {"measurement": "inhibition at 1000 µM", "setting": "human FGF-2", "value": 68, "unit": "%"}]}, {"compound": "CC(=O)N[C@H]1[C@H](O[C@H]2[C@@H](O)[C@@H](CO)O[C@@H](O[C@@H]([C@H](O)[C@@H](O)C=O)[C@H](O)CO)[C@@H]2O)O[C@H](CO[C@]2(C(=O)O)C[C@H](O)[C@@H](NC(C)=O)[C@H]([C@H](O)[C@H](O)CO)O2)[C@@H](O)[C@@H]1O[C@@H]1O[C@H](CO)[C@H](O)[C@H](O[C@]2(C(=O)O)C[C@H](O)[C@@H](NC(C)=O)[C@H]([C@H](O)[C@H](O)CO)O2)[C@H]1O", "note": "[DSLNT, disialyllacto-N-tetraose]", "values": [{"measurement": "NEC preventing effect in neonatal rat model", "setting": "[3]", "value": "effective for preventing necrotizing enterocolitis"}]}]}
